Here are results for three molecules from US20120269725A1, “TARGETED RADIOLABELED COMPOUNDS AND THEIR USE FOR THE TREATMENT AND DIAGNOSIS OF CANCER” (priority 2009, published 2012).

The subject of series [1] is subcutaneous LS174T tumors (human colorectal adenocarcinoma). Kind of series: Biodistribution, clearance and planar imaging in athymic mice bearing subcutaneous LS174T xenografts. The format is in vivo, athymic NCr-nu/nu mice. The note with it: for clearance from blood and normal tissues: IV administration. How it is done:
The in vivo properties and pharmacology of several compounds of the present invention were initially tested in athymic mice bearing subcutaneous LS174T tumors (human colorectal adenocarcinoma), which have several desirable properties such as rapid growth when implanted subcutaneously (SQ), good vascularization and the availability of considerable historical data for the parent compound IUdR. The clearance rates from blood, tumor, and associated organs were analyzed to determine the structure-pharmacokinetics relationship. The first compounds studied were 6b-fast and 6b-slow. Four-to-six-weeks old female athymic NCr-nu/nu mice (NCI-Frederic, Md., USA) were allowed to acclimate in Applicants' facility after delivery for no less than 5 days. All protocols involving animals were approved by the University of Nebraska Institutional Animal Care and Use Committee. Mice were housed in microisolator cages with free access to sterilized standard rodent diet and water. LS174T cells in 0.1 mL of serum-free medium were implanted SQ at 5×10^6 cells/mouse. One week later identification transponders were implanted, also SQ. Body weights and tumor sizes were monitored twice weekly, and approximately 10 days after the cell implant, mice were randomized for biodistribution studies.
Each of the two isomers, 6b-fast and 6b-slow, was tested independently in separate groups of mice. The comparison to the parent compound, IUdR, was made by co-injecting ^131IUdR with a particular ^125I-labeled diastereomer. Compounds were administered intravenously (IV) via a tail vein.
Biodistribution was conducted at 1 h, 4 h, 24 and 48 h after the administration of radiolabeled compounds (n=6 per time point). The injection doses contained approximately 1 μCi (37 kBq) ^131IUdR and 5 μCi (185 kBq) ^125I-labeled 6b-fast or 6b-slow dissolved in 0.2 mL phosphate buffered saline containing 0.1% bovine serum albumin, pH 7.2 (PBS). All syringes were weighted after loading with the compound solution and immediately after the injection to determine the weight of the injected dose. Triplicate standards of the injected dose were prepared in PBS and counted in a gamma counter just before the beginning of the experiment. The radioactive content of these standards was also determined alongside all tissues after the necropsy to correct the tissue uptake for the decay of the radioisotope. Blood, liver, spleen, heart, lungs, kidneys, brain, tumor and tail were collected during necropsy. Tissues were rinsed in ice-cold saline, patted dry and weighed. The tail was collected to validate the quality of the IV injections.
FIG. 7 presents whole body images for a typical time course distribution (24 h, 48 h, and 72 h) of 6b administered as a diastereomeric mixture in LS174T-bearing athymic mice. The images were acquired 1, 2, and 3 days after the administration of the compound. […] It is also apparent that based on pharmacokinetics, the use of these compounds can be tailored to a specific malignancy and its anatomical location.

A further series concerns advanced OVCAR-3 tumors. Kind of series: Therapy with fractionated doses in advanced OVCAR-3 tumors. The format is in vivo, athymic NCr-nu/nu mice. The note with it: IP fractionated doses. On the procedure:
Female athymic NCr-nu/nu mice were received from NCI-Frederic (MD, USA). Identification transponders were implanted SQ in mice acclimated for one week. When mice reached the age of 8-weeks, all mice received IP implant of 5.6×10^8 OVCAR-3 cells/mouse in 0.5 mL media without serum. This cancer cell load is double the size of implant described in Example 6 and allows for a rapid development of the advanced stages of the tumor. One weeks later mice were separated into […] via a lottery as follows: mice in the control group were left untreated; mice the vehicle group received 0.3 mL vehicle (PBS containing 0.5% albumin and 5% DMSO); the remaining mice in groups ×1, ×2, and ×3 received an IP injection of 8b-slow in 0.3 mL vehicle; two weeks later mice in groups ×2 and ×3 received an IP injection of 8b-slow in 0.3 mL vehicle; and four weeks after the first dose mice in group ×3 received an IP injection of 8b-slow in 0.3 mL vehicle. Using the same schedule, mice in the vehicle group were given IP injections of 0.3 mL vehicle. The average total administered doses were as follows: group ×1: 0.5 mCi […]; group ×2: 1 mCi (37 MBq), and group ×3: 1.5 mCi (55.5 MBq). All mice were killed six weeks after the administration of the first dose. […] The data analyses confirmed that the observed differences are statistically significant. […]

The test system of series [2] is early stage OVCAR-3 tumors. Kind of series: Dose-response therapy in early stage OVCAR-3 tumors. In kind it is in vivo, athymic NCr-nu/nu mice. How it is done:
Female athymic NCr-nu/nu mice were received from NCI-Frederick (MD, USA) and were allowed to acclimate in Applicants' facilities until the age of 8 weeks. After this period of acclimation, 2.5×10^8 OVCAR-3 cells were implanted into 36 mice. Four days later, each mouse received SQ transponders (micro-identification chips) and mice were divided into three groups at random: control mice receiving sham IP injections of 0.6 mL vehicle (n=12); mice in the high dose group were treated with one IP dose of 0.7 mCi (26 MBq) 8b slow in 0.6 mL vehicle (n=12); and mice the low dose group were treated with one IP dose of 0.29 mCi (10.7 MBq) 8b slow in 0.6 mL vehicle (n=12).
Five weeks after treatment, all mice were sacrificed and full necropsy was performed. A single dose of 8b slow given at the early stages of the disease reduces the tumor burden by […]. The response of solid tumors seems better than the cells in ascites, […] in the weight of the solid tumor deposits (FIG. 17). The uptake and retention of radioactivity was measured in several tissues and in tumor. The radioactivity levels in blood are ˜30 times lower than in the tumor cells in ascites and ˜10 times lower than in the solid tumors.

The subject of series [3] is U-87 human glioblastoma cells. Kind of series: Cell survival of U-87 human glioblastoma cells after treatment. In kind it is cell-based. The note with it: 24 h exposure, concentration-dependent survival (FIG. 24). How it is done: U-87 MG cell line is an epithelial cell line derived from a grade IV glioblastoma resected from the brain of a patient. U-87 cells were plated in four flasks for each isomer and allowed to attach for 24 h. The compounds 6b fast and 6b slow were added to U-87 cells at […] (37 kBq/mL). Cells were incubated with the radioactive compounds for 24 h and the radioactive medium was removed. Cells were washed twice with fresh, nonradioactive medium and trypsinized. After appropriate dilutions in full growth medium, cells were re-plated in fresh medium (n=4 per compound). After 96 hours in culture, cells were harvested and their numbers counted using a Cellometer® disposable cell counting chamber (Nexcelom Bioscience, Lawrence, Mass.). Four flasks used as controls were sham-treated with a volume of PBS used to dissolve radioactive compounds. The control flasks were processed as described for the radioactive compound-treated cells. […] The surviving fraction is calculated as the ratio of cell number recovered from flasks treated with radioactive compounds to the cell number recovered from the control flasks. Averages and standard deviations are shown. The cell survival was also measured in a 96-well and 6-well formats.
U-87 cells were plated in 6-well plates from suspension. The compounds 6b fast and 6b slow were added with media on day 0. […] The OD was read at 560 nm. […]

The test system of series [4] is U-87 human glioblastoma cells. Kind of series: DNA uptake and subcellular distribution of radioactivity in U-87 cells. In kind it is cell-based. On the procedure:
U-87 cells were plated in T75 flasks and allowed to attach for 24 h. Compounds 6b-fast and 6b slow were added to cells at 1 μCi/mL (37 kBq/mL) and 5 μCi/mL (185 kBq/mL). Cells were incubated with radioactive compounds from 24 h to 120 h. The radioactive medium was removed. Cells were washed twice with fresh, nonradioactive medium. Cells were trypsinized and their numbers and radioactive content determined. A similar study was also conducted in 96- and 24-well formats, which allowed more rapid analyses of several concentrations of 6b. Harvested cells were processed using NE-PER nuclear and cytoplasmic extraction reagents (Thermo Fisher Scientific, Rockford, Ill.). […] U-87 cells plated in T75 flasks and allowed to grow for 24 h. Cells were treated with […] 6b fast and 6b slow for 40 h at which time the radioactive medium was removed and replaced with fresh media. Cells were grown in fresh medium for additional 24 h and 72 h. Cells were trypsinized and DNA was extracted using the Qiagen method (Qiagen Genomic-tip 20/G; Qiagen, Valencia, Calif.).

Series [5] concerns U-87 human glioblastoma cells. The series can be described thus: Concentration-dependent uptake by U-87 cells. In kind it is cell-based. The note with it: 40 h exposure, 96-well plates. On the procedure: U-87 cells were plated in 96-well plates and allowed to attach for ˜48 hours. The used medium was replaced with 6b-containing medium and the cells were grown in the presence of radioactivity for 40 h. The radioactive media was removed after 40 h of exposure. Aliquots (0.05 mL) of the radioactive medium were counted in a gamma counter. Cell monolayers were washed with PBS, PBS-methanol (2 min), and fixed in methanol (10 min). Fixed cells were allowed to dry and were stained with 0.25% crystal violet (10 min). To each well 0.1 mL ethanol was added (2 h) followed by 0.1 mL 3.5 mM SDS in water. OD at 560 nm was read. Solubilized cells were transferred into gamma counter tubes to determine their radioactive content. The plate was divided into individual wells and these were also added to the gamma counter tubes. FIG. 27 illustrates the concentration-dependent uptake.

[6] abbreviates: five weeks after single IP dose.
The mark [7] stands for this setting: single IP dose, five weeks after treatment.

In the case of `CC(C)(C)c1cc(C(C)(C)C)c2c(c1F)COP(=O)(OC[C@H]1O[C@@H](n3cc([125I])c(=O)[nH]c3=O)C[C@@H]1O)O2` (some centres unmarked) [Compound 8b, 5-[^125I]-Iodo-5′-O-[cyclo-3,5-di-(tert-butyl)-6-fluoroSaligenyl]-2′-deoxyuridine Monophosphate], the “clearance from blood and normal tissues” value in series [1] is “very favorable blood clearance curve”. For the same molecule, in series [1] (biodistribution data), the “major site of normal tissue uptake” value is “liver is the major site of the normal tissue uptake”.

With `CC(C)(C)c1cc(C(C)(C)C)c2c(c1F)COP(=O)(OC[C@H]1O[C@@H](n3cc([125I])c(=O)[nH]c3=O)C[C@@H]1O)O2` (some centres unmarked) [8b slow, 5-[^125I]-Iodo-5′-O-[cyclo-3,5-di-(tert-butyl)-6-fluoroSaligenyl]-2′-deoxyuridine Monophosphate], the “clearance from blood and normal tissues” value in series [1] was “rapid clearance from blood and normal tissues”. Further, the “relationship between tumor size and total administered doses” value with advanced OVCAR-3 tumors (total 0.5, 1, 1.5 mCi, six weeks after first dose) is given as “unambiguous dose-response relationship”. Besides, the “hematological adverse effects (hemoglobin and hematocrit)” value in the series with advanced OVCAR-3 tumors (total 0.5-1.5 mCi) is recorded as “do not produce any significant hematological adverse effects”. In series [2] (setting [6]), the liver uptake is below 0.003 % ID/g; the “radioactivity level in blood, times lower than in the solid tumors” value is recorded as around 10 times; the “radioactivity level in blood, times lower than in the tumor cells in ascites” value is reported as around 30 times. For the same molecule, the “adverse effects by hemoglobin and hematocrit levels” value in series [2] (single IP dose 0.29 or 0.7 mCi) was “not causing noticeable adverse effects”. Further, in series [2] (setting [7]), the “reduction in the weight of the solid tumor deposits” value is recorded as above 300% and the “reduction of tumor burden” value is recorded as above 230%.

On to `O=c1[nH]c(=O)n([C@H]2C[C@H](O)[C@@H](COP3(=O)OCc4ccccc4O3)O2)cc1[125I]` (some centres unmarked) [6b slow, 5-[^125I]-Iodo-5′-O-cycloSaligenyl-2′-deoxyuridine Monophosphate], for which the “cytotoxicity to U-87 cells, slow versus fast isomer” value in series [3] is recorded as “more cytotoxic to U-87 cells compared to the 6b fast isomer”. In addition, in series [4], the “cellular and nuclear uptake, slow versus fast isomer” value was “greater overall cellular and nuclear uptake when compared to 6b fast”. In series [5], the “uptake by U-87 cells compared to 6b fast” value is given as “almost a two-fold greater uptake”.
